Read-outs that look alike come from different tables or passages of the source.
Assays:
BALB/MK keratinocytes = assay: DNA synthesis (3H-thymidine incorporation) in BALB/MK keratinocytes; assay type: cell-based, murine; conditions: for IC (maximal): Mus musculus, Keratinocyte
Protocol: The BALB/MK epidermal keratinocyte cell line, kindly provided by Dr. S Aaronson (National Cancer Institute, Bethesda, Md., USA), was cultured (37° C., 10% CO2 humidified atmosphere) in calcium-free MEM (Beth Haemek, Israel) supplemented with 10% dialyzed FCS and murine EGF (5 ng/ml).
Bovine capillary endothelial cells (BCE) and bovine aortic BSMC were plated in 24-well plates (6000 cells per well) in 500 μl DMEM medium supplemented with 10% Colorado calf serum (CCS) (GIBCO, USA) and GPS. After 24 hours, medium was changed to starvation medium (2% CCS, 0.5% BSA, GPS) for 24 hours. ^3 H-methyl-thymidine (5 μCi/ml) was added for the last 6 hours. DNA synthesis assays were performed as described above, in triplicates. DNA synthesis assays in BALB/MK keratinocytes were performed as previously described (Marikovsky, 1995).-DNA synthesis assays were performed in triplicates.
Disulfiram was prepared in 0.1 mM stock solutions in DMSO. Control samples were incubated with the appropriate concentration of DMSO. Inhibition was calculated as percentage of DNA synthesis of control.
To determine whether disulfiram acts directly on endothelial cells rather than on accessory cells such as macrophages and mast cells that can be responsible for the development of an angiogenic response in vivo, the effect of the drug on the growth of BCE cells was examined in vitro as described in section (c) of "Materials and Methods" above. DNA synthesis in BCE cells was measured in presence of increasing concentrations of disulfiram incubated for 24 hours with the cells. […] Maximal inhibitory activity (80%) for BSMC was at 0.5-1 μM disulfiram, while maximal inhibitory activity for C6 glioma cells or BALB/MK keratinocytes was at concentrations 10 fold higher (2-3 μM) than those for endothelial cells (0.2-0.5 μM).
To examine the time course of the effect of disulfiram and whether the effect was reversible, cells were incubated with disulfiram for various periods of time (1, 2, 4 and 24 hours), then washed away and DNA synthesis was determined. One to 4 hours of exposure to disulfiram were enough to induce maximal inhibitory effect at concentrations ranging from 0.5 μM for BCE cells (FIG. 3A) to 5 μM for BALB/MK keratinocytes (FIG. 3C) and C6 glioma cells (FIG. 3D). […] BSMC were less sensitive as far as time course is concerned when incubated with 1 μM disulfiram. Following 4 hours of incubation with 1 μM disulfiram, DNA synthesis inhibition in BSMC reached only 50% (FIG. 3B). The data shown here indicate that the damage for capillary endothelial cells, following a short incubation of 1 to 2 hours, was maximal and that, at least in a time scale of 24 hours, this damage was non-reversible.

endothelial cells = assay: Cell rounding, capillary endothelial cells; assay type: cell-based, bovine
Protocol: Capillary endothelial cells were grown during 48 hours to 40-50% confluency and disulfiram was then added to the cells for 20 hours as described in section (g) of "Materials and Methods" above. […] The abundance of apoptotic cells was dose-dependent.

BSMC = assay: Cell rounding, BSMC; assay type: cell-based, bovine; conditions: 5 μM
[1] = system: Lewis lung (D122) metastasis in the lungs; assay: Lewis lung carcinoma metastasis, i.v. model; assay type: in vivo, C57/BL mice
Text: The Lewis lung carcinoma (3LL), which originated spontaneously in a C57/BL/6J (H-2^b) mouse, is a malignant tumor that produces spontaneous lung metastases. The metastatic clone D122, kindly provided by Prof. Lea Eisenbach (Weizmann Institute of Science, Rehovot, Israel), was used herein for tissue culture and for in vivo experiments. The cell cultures were maintained in DMEM supplemented with 10% heat-inactivated FCS, glutamine, antibiotics, sodium pyruvate and nonessential amino acids.
To distinguish between the effect on the migration of the cells from the main tumor and the development of a tumor from a metastatic foci, the i.v. model was used. D122 cells (5×10^5) were injected i.v. to the tail of C57/B1 male mice and after 24 days mice were killed and their lungs weighed. Treatment with disulfiram was started 3 days following the injection of D122 cells. […]
To distinguish between the effect on the migration of the cells from the main tumor and the development of a tumor from a metastatic foci, the i.v. metastastis model was used as described in section (f) of materials and Methods above. D122 cells were injected i.v. to the tail of C57/B1 male mice. Three days after, disulfiram was administered to the mice per os 3 times per week, at concentrations of 13-40 μg/mouse.

interleukin-1 = conditions: U.S. Pat. No. 4,870,101; cited from earlier work
[2] = system: transmammary carcinogenesis; conditions: 7,12-dimethylbenz(a)anthracene, mice; cited from earlier work
[3] = system: ifosfamide- and cyclophosphamide-induced urotoxicity; conditions: administered simultaneously with ifosfamide or cyclophosphamide, mice; cited from earlier work
other tissues = assay: Tissue damage on systemic administration; conditions: 25-60 μg/mouse systemically

CCN(CC)C(=S)SSC(=S)N(CC)CC [disulfiram, Bis(diethylthiocarbamoyl) disulfide]
maximal inhibitory concentration relative to endothelial cells, fold higher (BALB/MK keratinocytes; BALB/MK vs endothelial cells (0.2-0.5 μM)): 10 fold
persistence of inhibitory effect after short exposure (BALB/MK keratinocytes; MK, 24 hours following short exposure): inhibitory effect seemed to be maintained
IC (maximal) (BALB/MK keratinocytes; BALB/MK keratinocytes, read-out: concentration of maximal inhibitory activity (DNA synthesis)): 2 to 3 µM
IC (maximal) (BALB/MK keratinocytes; BALB/MK, 1 to 4 hours of exposure, washed, read-out: concentration inducing maximal inhibitory effect on DNA synthesis, short exposure): 5 µM
cell rounding (endothelial cells): quickly became rounded
cell rounding (BSMC): did not change their shape to the rounded form
metastasis in the lungs compared with water-fed control (in words) ([1]; 13-40 μg, 3 times a week, 24 days, n=6, p=0.023-0.037): significantly smaller
inhibition of the development of metastatic foci in the lungs ([1]; 13-40 μg/mouse per os 3 times per week): 83-95%
decrease of metastasis to the lungs ([1]; 13-40 μg/mouse, 3 times a week, 24 days): 6-19 fold
inhibition of interleukin-1 release (interleukin-1): effective to inhibit the release of interleukin-1
inhibition of transmammary carcinogenesis [2]: inhibit transmammary carcinogenesis
protection against urotoxicity [3]: protect mice
damage in other tissues (other tissues): no evidence for damage in other tissues

Source: patent US6288110A, “Pharmaceutical compositions comprising disulfiram” (Yeda Research and Development Co Ltd., priority 1998, dated 2001)
